From ChEMBL document CHEMBL1201862, “PubChem BioAssay data set” (2004)
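Results reflect a 48-hour exposure of cells in 96-well plates to compound at five concentrations. Here, GI50 denotes the concentration required for 50% inhibition of growth.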 Calls of active or inactive are those of the source. Rule as the data show it: active = GI50 up to about 1.1 µM and inactive = higher.

Assays:
Assay in all cases: growth of human tumour cells (NCI), 48 h
SN12C = tested on: SN12C
SK-MEL-28 = tested on: SK-MEL-28
U-251 = tested on: U-251
SK-OV-3 = tested on: SK-OV-3
HCT-116 = tested on: HCT-116
SW-620 = tested on: SW-620
PC-3 = tested on: PC-3
SR = tested on: SR
UACC-62 = tested on: UACC-62
SF-295 = tested on: SF-295
K562 = tested on: K562
SF-268 = tested on: SF-268
NCI-H460 = tested on: NCI-H460
CCRF-CEM = tested on: CCRF-CEM
OVCAR-8 = tested on: OVCAR-8
786-0 = tested on: 786-0
TK-10 = tested on: TK-10
MOLT-4 = tested on: MOLT-4
HOP-62 = tested on: HOP-62

SMILES | GI50 (SN12C) | GI50 (SK-MEL-28) | GI50 (U-251) | GI50 (SK-OV-3) | GI50 (HCT-116) | GI50 (SW-620) | GI50 (PC-3) | GI50 (SR) | GI50 (UACC-62) | GI50 (SF-295) | GI50 (K562) | GI50 (SF-268) | GI50 (NCI-H460) | GI50 (CCRF-CEM) | GI50 (OVCAR-8) | GI50 (786-0) | GI50 (TK-10) | GI50 (MOLT-4) | GI50 (HOP-62)
CC(=O)N1c2ccccc2C23CCN(C)CC4C(C)OCC(C4CC2=O)C13 (stereo unspecified) | > 100 µM (inactive) | > 100 µM (inactive) | > 100 µM (inactive) | > 100 µM (inactive) | > 100 µM (inactive) | > 100 µM (inactive) | > 100 µM (inactive) | > 100 µM (inactive) | > 100 µM (inactive) | > 100 µM (inactive) | > 100 µM (inactive) | > 100 µM (inactive) | > 100 µM (inactive) | > 100 µM (inactive) | > 100 µM (inactive) | > 100 µM (inactive) | > 100 µM (inactive) | > 100 µM (inactive) | 
Clc1ccc(-c2ccc(-c3nn4c(CNc5ccccc5)nnc4s3)o2)c(Cl)c1 | > 100 µM (inactive) | > 100 µM (inactive) | > 100 µM (inactive) | > 100 µM (inactive) | 43.6 µM (inactive) | > 100 µM (inactive) | 54.2 µM (inactive) | 27.5 µM (inactive) |  | 60.1 µM (inactive) | 43.7 µM (inactive) | > 100 µM (inactive) | 85.9 µM (inactive) | 46.7 µM (inactive) | 68.7 µM (inactive) | > 100 µM (inactive) | > 100 µM (inactive) | 24 µM (inactive) | > 100 µM (inactive)
C/C(=N\O)c1ccc(Nc2nc3ccccc3c3occc23)cc1 | 13.1 µM (inactive) |  | 12.6 µM (inactive) | 18.6 µM (inactive) | 4.89 µM (inactive) |  | 10.6 µM (inactive) | 2.37 µM (inactive) | 14.7 µM (inactive) | 3.4 µM (inactive) | 2.19 µM (inactive) | 6.31 µM (inactive) | 1.82 µM (inactive) | 4 µM (inactive) | 15.2 µM (inactive) | 3.8 µM (inactive) | 2.9 µM (inactive) | 3 µM (inactive) | 11.3 µM (inactive)
N#CCN(Cc1ccccc1)[C@H]1CCC[C@]1(O)/C=C/c1ccc2c(c1)OCO2 |  | 17.3 µM (inactive) | 19.2 µM (inactive) | 46.6 µM (inactive) |  | 20.8 µM (inactive) | 16.8 µM (inactive) | 17.5 µM (inactive) | 16.1 µM (inactive) | 16.4 µM (inactive) | 24.5 µM (inactive) | 34.4 µM (inactive) | 18.3 µM (inactive) | 16.4 µM (inactive) | 17.1 µM (inactive) | 17.4 µM (inactive) | 42.9 µM (inactive) | 21.7 µM (inactive) | 26.3 µM (inactive)
O=C1CSC(c2cc3cc(Br)ccc3nc2Cl)N1c1ccc(Cl)cc1 (stereo unspecified) | 20.2 µM (inactive) | 33.7 µM (inactive) |  | 43.3 µM (inactive) | 23.6 µM (inactive) | 34.3 µM (inactive) | 41.2 µM (inactive) | 15.1 µM (inactive) | 5.87 µM (inactive) | 12.9 µM (inactive) | 7.33 µM (inactive) | 22.2 µM (inactive) | 16.1 µM (inactive) | 7.71 µM (inactive) | 44.1 µM (inactive) | 35.6 µM (inactive) | 29.6 µM (inactive) | 17.4 µM (inactive) | 25.8 µM (inactive)
Cc1ccc(N2C(=O)C(O)=C(C(=O)C(C)(C)C)C2c2ccc([N+](=O)[O-])cc2)cc1 (stereo unspecified) | 15.4 µM (inactive) | 21.5 µM (inactive) | 26.6 µM (inactive) | 20.8 µM (inactive) | 16 µM (inactive) |  | 29.9 µM (inactive) | 7.53 µM (inactive) | 14.9 µM (inactive) | 20.9 µM (inactive) | 23.9 µM (inactive) | 13 µM (inactive) | 9.27 µM (inactive) | 26.3 µM (inactive) | 18.9 µM (inactive) | 16.3 µM (inactive) | 36.2 µM (inactive) | 7.26 µM (inactive) | 17.3 µM (inactive)
CC(=O)c1c2c(cc3c1CC1(Cc4cc5c(cc4C1)C(=O)CCC5)C3)CCCC2 (stereo unspecified) | 13.4 µM (inactive) | 7.38 µM (inactive) | 10.8 µM (inactive) | > 54.8 µM (inactive) | 14.4 µM (inactive) | 5.25 µM (inactive) | 5.53 µM (inactive) | 2.48 µM (inactive) |  | 8.24 µM (inactive) | 1.76 µM (inactive) | 8.07 µM (inactive) | 4.69 µM (inactive) | 1.77 µM (inactive) | 13.9 µM (inactive) | 5.66 µM (inactive) | 16.5 µM (inactive) | 2.59 µM (inactive) | 5.09 µM (inactive)
c1ccc(C(=NNc2nc3ccccc3o2)c2ccccn2)nc1 | 0.118 µM (active) |  | 0.0998 µM (active) | 0.0292 µM (active) | < 0.0117 µM (active) | 0.024 µM (active) | < 0.0191 µM (active) | 0.0388 µM (active) | 0.0993 µM (active) | 0.121 µM (active) | 0.0327 µM (active) | 0.0841 µM (active) |  | < 0.01 µM (active) | 0.0301 µM (active) | < 0.0254 µM (active) | 0.0574 µM (active) | < 0.0105 µM (active) | 0.0408 µM (active)
